Read-outs that look alike come from different tables or passages of the source.

What all share (type): cell-based
In assay [1] the test system is human hepatocellular carcinoma cell line SNU398. The experiment in a line: Inhibition of cell proliferation (GI50), SNU398. To be noted: SNU 398 cells, 48 h, CellTiter-Glo. How it is done: (§1) Human breast cancer cell lines T-47D, human hepatocellular carcinoma cell line SNU398, human colon carcinoma cell line HCT116, human lung cancer cell line H1299, human leukemia cell line K562, human lymphoma cell line Raji, human B cell lymphoblastoid cell line Ramos, and human Burkitt's lymphoma cell line Namalwa were grown and harvested as in Example 100. An aliquot of […] of cells (4.4×10^4 cells/mL) was added to a well of a 96-well microtiter plate containing 5 μL of a 10% DMSO in RPMI-1640 media solution containing 10 nM to 100 μM of 3-(2-chlorophenyl)-6-(3,4-methylenedioxyphenyl)-7H-[1,2,4]triazolo[3,4-b][1,3,4]thiadiazine (1 nM to 10 μM final). An aliquot of 45 μL of cells was added to a well of a 96-well microtiter plate containing 5 μL of a 10% DMSO in RPMI-1640 media solution without compound as the control sample for maximal cell proliferation (LMax). The samples were mixed by agitation and then incubated at 37° C. for 48 h in a 5% CO2-95% humidity incubator. After incubation, the samples were removed from the incubator and 25 μL of CellTiter-Glo™ reagent (Promega) was added. The samples were mixed by agitation and incubated at room temperature for 10-15 min. Plates were then read using a luminescent plate reader (Model SPECTRAfluor Plus, Tecan) to give Ltest values.
(§2) The samples were mixed by agitation and then incubated at 37° C. for 0.5 h in a 5% CO2-95% humidity incubator. After incubation, the samples were removed from the incubator and 25 μL of CellTiter-Glo™ reagent (Promega) was added. The samples were mixed by agitation and incubated at […] 10-15 min at room temperature in a 5% CO2-95% humidity incubator. Fluorescence was read as above, (LStart) defining luminescence for initial cell number used as baseline in GI50 determinations.
(§3) Calculation: GI50 (dose for 50% inhibition of cell proliferation) is the concentration where [(Ltest−LStart)/(LMax−LStart)]=0.5.

The test system of assay [2] is human colon carcinoma cell line HCT116. Description: Inhibition of cell proliferation (GI50), HCT116. To be noted: HCT 116 cells, 48 h, CellTiter-Glo. As to the method: as §1, §2, §3
The subject of assay [3] is human hepatocellular carcinoma cell line SNU398. Description: Caspase cascade activation (EC50), SNU398. The conditions noted are these: Homo sapiens, SNU-398; SNU398 cells; caspase cascade activation; read-out: caspase potency (EC50) SNU398. In outline: (§4)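 EC50 values derive from a sigmoidal fit of net fluorescence (3 h reading minus control T=0 background) relative to untreated control. The 3 h room-temperature read used 14 μM DEVD-R110 substrate with lysolecithin, DTT and pH 7.2 PIPES buffer at 485/530 nm. Beforehand, cells were treated 48 h at 37° C with 0.016-10 μM final compound.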

Assay [4] concerns human Burkitt's lymphoma cell line Namalwa. The experiment in a line: Caspase cascade activation (EC50), Namalwa. To be noted: Homo sapiens, Burkitts lymphoma cell; Namalwa cells; caspase cascade activation; read-out: caspase potency (EC50) Namalwa. The gist of the method: as §4
The subject of assay [5] is human breast cancer cell line T-47D. Description: Inhibition of cell proliferation (GI50), T47D. To be noted: T47D cells, 48 h, CellTiter-Glo. As to the method: as §1, §2, §3
Assay [6] has the same test system. The experiment in a line: Caspase cascade activation (EC50), T-47D. To be noted: T47D cells, caspase cascade activation, read-out: caspase potency (EC50) T47D. In outline: as §4
Assay [7] has as its system human Burkitt's lymphoma cell line Namalwa. Description: Inhibition of cell proliferation (GI50), Namalwa. The conditions noted are these: Homo sapiens, Burkitts lymphoma cell; Namalwa cells, 48 h, CellTiter-Glo. As to the method: as §1, §2, §3
Assay [8] relates to human colon carcinoma cell line HCT116. The experiment in a line: Caspase cascade activation (EC50), HCT116. To be noted: Homo sapiens, HCT-116; HCT116 cells; caspase cascade activation; read-out: caspase potency (EC50) HCT116. The gist of the method:
as §4

The subject of assay [9] is human lymphoma cell line Raji. Description: Caspase cascade activation (EC50), Raji. To be noted: Homo sapiens, RAJI cells, read-out: caspase potency (EC50) RAJI. In outline: as §4
Assay [10] relates to human B cell lymphoblastoid cell line Ramos. The experiment in a line: Caspase cascade activation (EC50), Ramos. To be noted: Homo sapiens, RAMOS cells, read-out: caspase potency (EC50) RAMOS. The gist of the method: as §4
Assay [11] has the same test system. The experiment in a line: Inhibition of cell proliferation (GI50), Ramos. To be noted: Homo sapiens; Ramos cells, 48 h, CellTiter-Glo. As to the method:
as §1, §2, §3

Assay [12] relates to human leukemia cell line K562. The experiment in a line: Inhibition of cell proliferation (GI50), K562. The conditions noted are these: Homo sapiens; K562 cells, 48 h, CellTiter-Glo. How it is done:
as §1, §2, §3

Assay [13] has as its system human cancer cell line H1299. The experiment in a line: Caspase cascade activation (EC50), H1299. To be noted: NCI-H1299, H1299 cells, read-out: caspase potency (EC50) H1299. How it is done:
Human breast cancer cell lines T-47D, human hepatocellular carcinoma cell line SNU398, human colon carcinoma cell line HCT116, human cancer cell line H1299, human Burkitt's lymphoma cell line Namalwa, human lymphoma cell line Raji, and human B cell lymphoblastoid cell line Ramos were grown according to media component mixtures designated by American Type Culture Collection+10% FCS (Invitrogen Corporation), in a 5% CO2-95% humidity incubator at 37° C. T-47D and H1299 cells were maintained at a cell density between 50 and 80% confluency at a cell density of 0.1 to 0.6×10^6 cells/mL. Cells were harvested at 600×g and resuspended at 0.65×10^6 cells/mL into appropriate media+10% FCS. An aliquot of 22.5 μL of cells was added to a well of a 384-well microtiter plate containing 2.5 μL of a 10% DMSO in RPMI-1640 media solution containing 0.16 to 100 μM of 3-(2-chlorophenyl)-6-(3,4-methylenedioxyphenyl)-7H-[1,2,4]triazolo[3,4-b][1,3,4]thiadiazine or other test compound (0.016 to 10 μM final). An aliquot of 22.5 μL of cells was added to a well of a 384-well microtiter plate containing 2.5 μL of a 10% DMSO in RPMI-1640 media solution without test compound as the control sample. The samples were mixed by agitation and then incubated at 37° C. for 48 h in a 5% CO2-95% humidity incubator. After incubation, the samples were removed from the incubator and 25 μL of a solution containing 14 μM of N—(Ac-DEVD)-N′-ethoxycarbonyl-R110 (SEQ ID No.:1) fluorogenic substrate (Cytovia, Inc.; WO99/18856), 20% sucrose (Sigma), 20 mM DTT (Sigma), 200 mM NaCl (Sigma), 40 mM Na PIPES buffer pH 7.2 (Sigma), and 500 μg/mL lysolecithin (Calbiochem) was added. The samples were mixed by agitation and incubated at room temperature. Using a fluorescent plate reader (Model SPECTRAfluor Plus, Tecan), an initial reading (T=0) was made approximately 1-2 min after addition of the substrate solution, employing excitation at 485 nm and emission at 530 nm, to determine the background fluorescence of the control sample. After the 3 h incubation, the samples were read for fluorescence as above (T=3 h). Calculation: The Relative Fluorescence Unit values (RFU) were used to calculate the sample readings as follows: RFU(T=3H)−Control RFU(T=0)=Net RFU(T=3h) The activity of caspase cascade activation was determined by the ratio of the net RFU value for 3-(2-chlorophenyl)-6-(3,4-methylenedioxyphenyl)-7H-[1,2,4]triazolo[3,4-b][1,3,4]thiadiazine (Example P) or other test compound to that of control samples. The EC50 (nM) was determined by a sigmoidal dose-response calculation (Prism 3.0, GraphPad Software Inc.).

The subject of assay [14] is human lymphoma cell line Raji. Description: Inhibition of cell proliferation (GI50), Raji. The conditions noted are these: Homo sapiens; Raji cells, 48 h, CellTiter-Glo. How it is done:
as §1, §2, §3

As for `Cc1ccc(C2=Nn3c(nnc3-c3ccccc3C)SC2)cc1N` [Example 61, 6-(3-Amino-4-methylphenyl)-3-(2-methylphenyl)-7H-[1,2,4]triazolo[3,4-b][1,3,4]thiadiazine], the GI50 in assay [1] (Homo sapiens) is 228 nM; in assay [2] (Homo sapiens), 400 nM; in assay [5] (Homo sapiens), 269 nM; in [7], 150 nM. Also, the concentration giving a half-maximal response (EC50) in assay [3] was determined as 109 nM; in assay [4], 71 nM; in [6] (Homo sapiens), 330 nM; in [8], 137 nM.
With `COc1cccc(C2=Nn3c(nnc3-c3ccccc3OC)SC2)c1` [Example 63, 3-(2-Methoxyphenyl)-6-(3-methoxylphenyl)-7H-[1,2,4]triazolo[3,4-b][1,3,4]thiadiazine], the GI50 in assay [1] (Homo sapiens) came out at 119 nM; in [2] (Homo sapiens), 300 nM; in assay [5] (Homo sapiens), 371 nM; in [7], 232 nM. In addition, the EC50 in assay [3] was 146 nM; in [4], 128 nM; in assay [6] (Homo sapiens), 261 nM; in assay [8], 277 nM.
Regarding `COc1ccc(C2=Nn3c(nnc3-c3ccc(Cl)cc3Cl)SC2)cc1` [Example N3], the concentration for 50% growth inhibition (GI50) in [1] (Homo sapiens) was 13 nM; in [2] (Homo sapiens), 40 nM; in assay [5] (Homo sapiens) it was 34 nM; in assay [7], 64 nM. Further, the EC50 in assay [3] is 52 nM; in assay [4], 32 nM; in [6] (Homo sapiens), 284 nM; in assay [8] it was 55 nM.
`CCOc1ccc(C2=Nn3c(nnc3-c3ccccc3C)SC2)cc1` [L, 3-(2-Methylphenyl)-6-(4-ethoxyphenyl)-7H-[1,2,4]triazolo[3,4-b][1,3,4]thiadiazine]: the 50% growth inhibitory concentration (GI50) in assay [2] (Homo sapiens) was found to be 141 nM; in [11], 17 nM; in [12], 27 nM; in assay [7], 24 nM; in assay [14] it was 62 nM. Further, the concentration giving a half-maximal response (EC50) was 141 nM in [9]; 92 nM in assay [3]; 62 nM in assay [4]; 1340 nM in assay [6] (Homo sapiens); 93 nM in assay [10]; 339 nM in assay [13]. In addition, the half-maximal effective concentration (EC50) in [8] is 126 nM.
On to `CCOc1ccc(C2=Nn3c(nnc3-c3ccc(C)cc3)SC2)cc1` [B, 3-(4-Methylphenyl)-6-(4-ethoxyphenyl)-7H-[1,2,4]triazolo[3,4-b][1,3,4]thiadiazine], for which the concentration for 50% growth inhibition (GI50) in [2] (Homo sapiens) is 396 nM; in assay [11] it was 108 nM; in assay [12] it was 267 nM; in assay [7], 254 nM; in assay [14], 133 nM. For the same compound, the EC50 is 455 nM in [9]; 266 nM in assay [3]; 270 nM in [4]; 2710 nM in assay [6] (Homo sapiens); 331 nM in [10]; 1250 nM in [13]. Moreover, the concentration giving a half-maximal response (EC50) in assay [8] amounted to 431 nM.
As to “3-(3,5-Dimethoxyphenyl-4-(2-dimethylaminoethoxy)phenyl)-6-(4-methylphenyl)-7H-[1,2,4]triazolo[3,4-b][1,3,4]thiadiazine [Example 16]”, the GI50 in assay [1] is 2000 nM; in assay [2], 1150 nM; in assay [5], 936 nM. In addition, the EC50 in [6] was 609 nM.
Consider `COc1ccc(C2=Nn3c(nnc3-c3cccc(Cl)c3)SC2)cc1` [R, 3-(3-Chlorophenyl)-6-(4-methoxyphenyl)-7H-[1,2,4]triazolo[3,4-b][1,3,4]thiadiazine], for which the GI50 in [2] (Homo sapiens) amounted to 121 nM; in assay [11], 17 nM; in assay [12], 42 nM; in assay [7] it was 117 nM; in assay [14], 89 nM. Moreover, the EC50 in assay [9] came to 109 nM; in [3] it was 115 nM; in [4] it was 122 nM; in [6] (Homo sapiens), 557 nM; in assay [10], 77 nM; in assay [13], 553 nM. The EC50 in assay [8] was 242 nM.
As to `COc1cc(-c2nnc3n2N=C(c2ccc(C)cc2)CS3)cc(OC)c1OC` [Example 17, 3-(3,4,5-Trimethoxyphenyl)-6-(4-methylphenyl)-7H-[1,2,4]triazolo[3,4-b][1,3,4]thiadiazine], the GI50 in [1] (Homo sapiens) was determined as 25 nM; in [2] (Homo sapiens) it was 21 nM; in [5] (Homo sapiens), 15 nM. Also, the 50% effective concentration (EC50) in assay [9] was found to be 50 nM; in assay [3], 24 nM; in [4] it was 29 nM; in [6] (Homo sapiens) it was 118 nM; in [10], 31 nM; in assay [8] it was 46 nM.
As for `CCOc1cccc(-c2nnc3n2N=C(c2ccc4c(c2)OCO4)CS3)c1` [Example E1, 3-(3-Ethoxyphenyl)-6-(3,4-methylenedioxyphenyl)-7H-[1,2,4]triazolo[3,4-b][1,3,4]thiadiazine], the GI50 in [1] (Homo sapiens) turned out to be 4600 nM; in [2] (Homo sapiens), 5000 nM; in assay [5] (Homo sapiens) it was 5000 nM. For the same compound, the EC50 is 5400 nM in assay [9]; over 10000 nM in assay [3]; over 10000 nM in [4]; 2120 nM in assay [6] (Homo sapiens); 2590 nM in assay [10]; over 10000 nM in assay [8].

For the origin of these results see patent US20080045514A1 (Cytovia, Inc., priority 2006, published 2008).
